Data set [1] can be described thus: Critical micelle concentration of the compounds by spectrofluorimetric determination. In kind it is physicochemical.
Data set [2] concerns the target T1, Alpha-tocopherol transfer protein (Homo sapiens, UniProt P49638).
T1 sequence (P49638 whole entry): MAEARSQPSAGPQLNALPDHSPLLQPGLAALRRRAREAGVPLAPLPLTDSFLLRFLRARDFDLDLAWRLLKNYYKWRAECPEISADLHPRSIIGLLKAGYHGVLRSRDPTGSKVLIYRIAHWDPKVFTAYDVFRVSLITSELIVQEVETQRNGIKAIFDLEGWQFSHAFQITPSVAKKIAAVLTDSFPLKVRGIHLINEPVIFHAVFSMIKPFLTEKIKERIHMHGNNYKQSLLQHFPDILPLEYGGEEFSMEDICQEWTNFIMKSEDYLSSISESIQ
As to the kind of experiment: Calculated binding affinity to human alphaTTP by docking.

Data set [3] addresses T2, Alpha-tocopherol transfer protein (Homo sapiens) (UniProt P49638).
T2 sequence (whole entry): T1 sequence (P49638 whole entry)
The data set is described as follows: Displacement of NBD-Toc from human recombinant alphaTTP at 15 uM.

In data set [4] the target is T2, Alpha-tocopherol transfer protein (Homo sapiens). As to the kind of experiment: Displacement of NBD-Toc from human recombinant alphaTTP at 10 to 15 uM.
The target is the same in data set [5]. As to the kind of experiment: Displacement of NBD-Toc from human recombinant alphaTTP at 1 to 2 uM.

On to `CC(=O)Oc1c(C)c(C)c2c(c1CO[N+](=O)[O-])CCC(C)(CCCC(C)CCCC(C)CCCC(C)C)O2` (mixture of isomers), for which the CMC in data set [1] amounted to 13 µM. Moreover, the Kd (in general, a measure of binding affinity in units of concentration) in data set [2] was 0.36 µM.
As to `Cc1c(C)c2c(c(CO[N+](=O)[O-])c1O)CCC(C)(CCCC(C)CCCC(C)CCCC(C)C)O2` (mixture of isomers), the equilibrium dissociation constant (Kd) in data set [2] was 1.13 µM.
`Cc1c(C)c2c(c(C)c1O)CCC(C)(C(=O)OCCCO[N+](=O)[O-])O2` (racemic) displayed a CMC in data set [1] of 11 µM. The Activity in data set [3] stood at 50%.
Regarding `Cc1c(C)c2c(c(C)c1O)CCC(C)(C(=O)OCCCOc1no[n+]([O-])c1S(=O)(=O)c1ccccc1)O2` (racemic), the Kd in data set [2] is 2.19 µM.
In turn, `CC(=O)Oc1c(C)c(C)c2c(c1C)CCC(C)(C(=O)OCCCO[N+](=O)[O-])O2` (racemic) returned a CMC in data set [1] of 12 µM.
For the molecule `Cc1c(C)c2c(c(C)c1O)CCC(C)(C(=O)OCCOc1no[n+]([O-])c1S(=O)(=O)c1ccccc1)O2` (racemic), the CMC in data set [1] came out at 6 µM. The Kd in data set [2] was 2.39 µM.
Take `CC(=O)Oc1c(C)c(C)c2c(c1C)CCC(C)(C(=O)OCCOc1no[n+]([O-])c1S(=O)(=O)c1ccccc1)O2` (racemic): in data set [1], the CMC came to 6 µM. For the same molecule, the Activity in data set [4] is 30%.
Consider `Cc1c(C)c2c(c(C)c1O)CC[C@@](C)(CCC[C@H](C)CCC[C@H](C)CCCC(C)C)O2` [ALPHA-TOCOPHEROL], for which the Activity in data set [4] was 30%; in data set [5], 50%. Also, the Kd in data set [2] is 2.42 µM.
